Holding throughout (format): cell-based
In data set [1] the target is T1, human Nav1.5 (Homo sapiens (Human), UniProt Q14524). Put plainly: Qpatch automated patch-clamp, peak Nav1.5 current inhibition, 5-Hz AF-like assay (holding potential -85 mV). The note with it: CHO-K1 cells stably expressing human Nav1.5, holding potential -85 mV, Table 5, read-out: Nav1.5 IC50 (5 Hz, AF Rate). From the text: (§1) Electrophysiology was used to measure the ionic currents in isolated living cells using automated patch-clamp recording, performed using an automated patch-clamp machine called Qpatch (Sophion Bioscience). Two different assay conditions were used to identify compounds with atrial-selective potential. The 5-Hz AF-like assay has more depolarized holding potential at −85 mV to mimic atrial resting membrane potential (RMP) and was used to identify compounds of strong rate-dependence. Active, rate-dependent compounds were then screened at 1 Hz (i.e., sinus rate) at the holding potential of −100 mV to mimic the ventricular scenario and help identify compounds with the largest potency separation or attenuation from the 5-Hz AF-like assay. Such compounds have the potential for treating AF without the QRS liability inherent to Class Ic drugs.
T1 sequence (Q14524 whole entry): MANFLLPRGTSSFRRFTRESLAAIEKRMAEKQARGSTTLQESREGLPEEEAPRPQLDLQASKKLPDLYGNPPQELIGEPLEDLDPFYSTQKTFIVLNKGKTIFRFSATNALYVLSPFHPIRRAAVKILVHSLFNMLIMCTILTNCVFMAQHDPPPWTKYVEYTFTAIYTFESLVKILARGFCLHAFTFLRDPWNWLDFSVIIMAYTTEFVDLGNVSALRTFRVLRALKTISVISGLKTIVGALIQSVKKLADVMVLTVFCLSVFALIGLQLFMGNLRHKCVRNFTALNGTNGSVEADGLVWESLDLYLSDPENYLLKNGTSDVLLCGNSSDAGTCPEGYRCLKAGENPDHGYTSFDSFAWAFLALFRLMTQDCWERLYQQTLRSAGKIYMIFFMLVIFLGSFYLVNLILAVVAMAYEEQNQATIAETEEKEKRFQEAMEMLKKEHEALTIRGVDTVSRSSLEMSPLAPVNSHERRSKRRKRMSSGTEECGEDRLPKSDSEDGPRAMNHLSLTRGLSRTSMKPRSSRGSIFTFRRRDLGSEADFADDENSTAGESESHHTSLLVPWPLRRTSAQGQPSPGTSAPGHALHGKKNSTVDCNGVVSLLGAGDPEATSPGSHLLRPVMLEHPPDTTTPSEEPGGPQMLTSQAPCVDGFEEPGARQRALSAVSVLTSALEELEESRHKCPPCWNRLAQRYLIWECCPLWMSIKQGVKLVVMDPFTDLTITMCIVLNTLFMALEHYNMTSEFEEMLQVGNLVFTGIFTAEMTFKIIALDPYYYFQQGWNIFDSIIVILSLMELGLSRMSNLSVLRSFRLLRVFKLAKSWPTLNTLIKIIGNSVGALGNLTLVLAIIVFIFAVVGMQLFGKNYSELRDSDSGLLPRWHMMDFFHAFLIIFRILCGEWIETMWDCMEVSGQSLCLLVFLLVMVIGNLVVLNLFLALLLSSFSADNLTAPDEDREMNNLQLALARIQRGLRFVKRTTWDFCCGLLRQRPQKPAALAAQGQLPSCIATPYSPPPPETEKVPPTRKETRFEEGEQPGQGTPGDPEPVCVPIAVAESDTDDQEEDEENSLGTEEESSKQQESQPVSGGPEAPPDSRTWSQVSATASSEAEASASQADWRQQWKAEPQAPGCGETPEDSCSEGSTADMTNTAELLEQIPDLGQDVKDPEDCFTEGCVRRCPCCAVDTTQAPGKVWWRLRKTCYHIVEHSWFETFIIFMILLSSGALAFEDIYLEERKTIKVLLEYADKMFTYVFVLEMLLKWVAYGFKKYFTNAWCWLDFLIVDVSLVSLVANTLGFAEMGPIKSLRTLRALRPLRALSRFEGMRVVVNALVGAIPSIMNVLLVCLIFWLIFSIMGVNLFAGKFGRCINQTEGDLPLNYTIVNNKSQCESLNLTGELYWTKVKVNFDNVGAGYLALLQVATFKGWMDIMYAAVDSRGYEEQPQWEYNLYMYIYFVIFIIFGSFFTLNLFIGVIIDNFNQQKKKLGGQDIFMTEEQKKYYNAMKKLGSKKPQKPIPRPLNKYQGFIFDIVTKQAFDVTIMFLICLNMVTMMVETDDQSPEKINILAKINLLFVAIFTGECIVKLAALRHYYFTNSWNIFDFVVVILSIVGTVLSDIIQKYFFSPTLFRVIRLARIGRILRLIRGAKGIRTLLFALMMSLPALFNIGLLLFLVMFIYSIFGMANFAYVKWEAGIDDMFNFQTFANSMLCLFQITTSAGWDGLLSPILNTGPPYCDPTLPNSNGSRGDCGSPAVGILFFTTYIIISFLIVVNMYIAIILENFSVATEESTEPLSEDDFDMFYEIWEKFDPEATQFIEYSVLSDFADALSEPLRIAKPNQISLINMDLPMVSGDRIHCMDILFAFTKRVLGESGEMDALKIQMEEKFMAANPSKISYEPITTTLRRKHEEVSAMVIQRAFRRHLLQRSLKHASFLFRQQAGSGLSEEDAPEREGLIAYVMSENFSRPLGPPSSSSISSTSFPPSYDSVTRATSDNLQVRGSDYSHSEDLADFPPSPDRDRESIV
(§2) The sodium current conducted through a cell (via Nav1.5) or electrical signals were processed through a low-pass filter at 5 KHz, re-digitalized and acquired at 20 kHz. Series resistance was not compensated and leak subtraction was performed.
(§3) 1 to 3 million Chinese Hamster Ovary cells (also known as CHO-K1) stably expressing human Nav1.5 were seeded into […] culture flasks with 25 mL medium (consisting of Gibco Dulbecco's Modified Eagle Medium as a base medium with 1% MEM non-essential amino acids, 400 μg/mL Geneticin, 5 μg/mL puromycin and 10% fetal bovine serum) 48-72 hours prior to the experiments. On the day of the experiment, cells were washed once with phosphate-buffered saline (also known as PBS; Gibco) detached with Detachin™ (Genlantis), and re-suspended in CHO—S-SFM II media (Gibco) at 200,000 cells/mL. The CHO—S-SFM II was replaced with assay solutions prior to the assays. Whole-cell currents were recorded at room temperature in the whole-cell configuration. The external aqueous assay solution (pH=7.4; Osm=307-315) contained the following (the concentration for each component is expressed in parentheses in mM): NaCl (140 mM), KCl (4 mM), CaCl2) (2 mM), MgCl2 (1 mM), 4-(2-hydroxyethyl)-1-piperazineethanesulfonic acid, also known as HEPES (10 mM), and glucose (5 mM). The internal aqueous assay solution (pH=7.2; Osm=292-295) contained the following (the concentration for each component is expressed in parentheses in mM): CsF (110 mM), CsCl (10 mM), NaCl (10 mM), HEPES (10 mM), and ethylene glycolbis(β-aminoethyl ether)-N,N,N′,N′-tetraacetic acid, also known as EGTA (10 mM).
To assess peak Nav1.5 current inhibition in an atrial fibrillation-mimicking condition (Nav1.5 IC50 (5 Hz, AF-like rate) (μM)), compounds were first prepared at 10 mM in DMSO, and cells were pre-incubated with test compounds at each concentration for 3 min. in an ascending order of 0, 0.37, 1.1, 3.3, 10 and 30 μM. An atrial action potential-like protocol consisting of a voltage ramp (+10 mV to −85 mV for a 150 ms duration and a holding potential at −85 mV) was then applied to cells at 5 Hz for 12 s until no further current change or inhibition was observed. The percent inhibition (expressed as ([Iafter compound treatment/Ibefore compound treatment]×100%) is calculated by normalizing the peak current amplitude at the last pulse of each of the 6 compound concentrations by the amplitude before exposure to the test compound. The compiled data was further normalized by vehicle control (DMSO) to account for Nav1.5 current run-down, and IC50 was calculated by Matlab (MathWorks, USA).
For orientation: Patch clamp records ionic current or voltage across a cell membrane.

Data set [2] has as its target T1, human Nav1.5. Nature of the data set: Qpatch automated patch-clamp, peak Nav1.5 current inhibition, 1 Hz sinus rate, ventricular condition (holding potential -100 mV). The note with it: CHO-K1 cells stably expressing human Nav1.5, without ATX-II.
Description: as §1, §2, §3
(§4) To assess peak Nav1.5 current inhibition mimicking a ventricular condition at sinus rate with or without ATX-II (Nav1.5 IC50 (1 Hz, ATXII) (μM) or (1 Hz, Sinus Rate) (μM)), compounds were first prepared at 10 mM in DMSO, and cells were pre-incubated with test compounds at each concentration for 3 min. in an ascending order of 0, 0.37, 1.1, 3.3, 10 and 30 uM. In the assay with ATX-II (Alomone Labs), 50 nM ATX-II was included during the 3-min. compound incubation. A square pulse (−10 mV; 400 ms and a holding potential at −100 mV) was run at 1 Hz for 25 s until no further inhibition or Nav1.5 current change was observed. The percent inhibition (expressed as ([Iafter compound treatment/Ibefore compound treatment]×100%) is calculated by normalizing the peak current amplitude at the last pulse of each of the 6 compound concentrations by the amplitude before exposure to the test compound. The compiled data was further normalized by vehicle control (DMSO) to account for Nav1.5 current run-down, and IC50 was calculated by Matlab (MathWorks, USA).

Data set [3] addresses T1, human Nav1.5. Nature of the data set: Qpatch automated patch-clamp, peak Nav1.5 current inhibition, 1 Hz with 50 nM ATX-II (holding potential -100 mV). The following applies: CHO-K1 cells stably expressing human Nav1.5, read-out: Nav1.5 IC50 (1 Hz, ATXII).
Description: as §1, §2, §3, §4

For orientation: IC50 means the concentration at which inhibition is half-maximal.

With `CC(O)(CS(N)(=O)=O)c1cc(-c2nnn(Cc3cc(OC(F)(F)F)ccc3F)n2)ccc1F` (single isomer, unassigned) [Example 5, (R or S)-2-(2-fluoro-5-(2-(2-fluoro-5-(trifluoromethoxy)benzyl)-2H-tetrazol-5-yl)phenyl)-2-hydroxypropane-1-sulfonamide], the IC50 is 7.9 µM at human Nav1.5 [1] and greater than 30 µM on human Nav1.5 [2].

On to `CC(O)(CS(N)(=O)=O)c1cc(-c2nnn(Cc3cc(OC(F)(F)F)ccc3F)n2)ccc1F` (single isomer, unassigned) [Example 6, (R or S)-2-(2-fluoro-5-(2-(2-fluoro-5-(trifluoromethoxy)benzyl)-2H-tetrazol-5-yl)phenyl)-2-hydroxypropane-1-sulfonamide], for which the figures for the IC50 at human Nav1.5 [1] and against human Nav1.5 [2] were 7.9 µM and greater than 30 µM, respectively.

With `CC(c1cccc(-c2nnn(Cc3cc(OC(F)(F)F)ccc3F)n2)n1)C(CO)S(N)(=O)=O` (single isomer, unassigned) [Example 33, (2R or 2S,3R or 3S)-3-(6-(2-(2-fluoro-5-(trifluoromethoxy)benzyl)-2H-tetrazol-5-yl)pyridin-2-yl)-1-hydroxybutane-2-sulfonamide], the IC50 on human Nav1.5 [1] turned out to be 1.3 µM; on human Nav1.5 [2], 6.7 µM.

For `CC(c1cccc(-c2nnn(Cc3cc(OC(F)(F)F)ccc3F)n2)n1)C(CO)S(N)(=O)=O` (single isomer, unassigned) [Example 34, (2R or 2S, 3R or 3S)-3-(6-(2-(2-fluoro-5-(trifluoromethoxy)benzyl)-2H-tetrazol-5-yl)pyridin-2-yl)-1-hydroxybutane-2-sulfonamide], the IC50 at human Nav1.5 [1] is 2.2 µM; at human Nav1.5 [2], greater than 30 µM.

Consider `CC(O)(CS(N)(=O)=O)c1cccc(-c2cn(Cc3cc(OC(F)(F)F)ccc3F)nn2)n1` (single isomer, unassigned) [Example 60, (R or S)-2-(6-(1-(2-fluoro-5-(trifluoromethoxy)benzyl)-1H-1,2,3-triazol-4-yl)pyridin-2-yl)-2-hydroxypropane-1-sulfonamide], for which the IC50 at human Nav1.5 [1] came to 7 µM; on human Nav1.5 [3] it was 16 µM.

`CC(O)(CS(N)(=O)=O)c1cccc(-c2nnn(Cc3cc(Cl)ccc3F)n2)n1` (single isomer, unassigned) [Example 21, (R or S)-2-(6-(2-(5-chloro-2-fluorobenzyl)-2H-tetrazol-5-yl)pyridin-2-yl)-2-hydroxypropane-1-sulfonamide]: the IC50 on human Nav1.5 [1] is 6.3 µM; at human Nav1.5 [3], greater than 30 µM.

As to `CC(O)(CS(N)(=O)=O)c1cccc(-c2nnn(Cc3cc(C(F)(F)F)ccc3F)n2)n1` (single isomer, unassigned) [Example 19, (R or S)-2-(6-(2-(2-fluoro-5-(trifluoromethyl)benzyl)-2H-tetrazol-5-yl)pyridin-2-yl)-2-hydroxypropane-1-sulfonamide], the IC50 at human Nav1.5 [1] was found to be 5 µM; at human Nav1.5 [3] it was 14 µM.

Turning to `CC(O)(CS(N)(=O)=O)c1cccc(-c2nnn(Cc3cc(C(F)(F)F)ccc3F)n2)n1` (single isomer, unassigned) [Example 20, (R or S)-2-(6-(2-(2-fluoro-5-(trifluoromethyl)benzyl)-2H-tetrazol-5-yl)pyridin-2-yl)-2-hydroxypropane-1-sulfonamide], the IC50 was found to be 7.9 µM on human Nav1.5 [1] and 23 µM at human Nav1.5 [3].

For the compound `CC(O)(CS(N)(=O)=O)c1cccc(-c2cnn(Cc3cc(OC(F)(F)F)ccc3F)n2)n1` (single isomer, unassigned) [Example 61, (R or S)-2-(6-(2-(2-fluoro-5-(trifluoromethoxy)benzyl)-2H-1,2,3-triazol-4-yl)pyridin-2-yl)-2-hydroxypropane-1-sulfonamide], the IC50 on human Nav1.5 [1] was 5 µM; at human Nav1.5 [3], greater than 30 µM.

Take `CC(O)(CS(N)(=O)=O)c1cccc(-c2nnn(Cc3cc(OCC(F)(F)F)ccc3F)n2)n1` (single isomer, unassigned) [Rac-29+30, (R or S)-2-(6-(2-(2-fluoro-5-(2,2,2-trifluoroethoxy)benzyl)-2H-tetrazol-5-yl)pyridin-2-yl)-2-hydroxypropane-1-sulfonamide]: the IC50 at human Nav1.5 [1] is 2.5 µM; at human Nav1.5 [3], 3 µM.

On to `CC(O)(CS(N)(=O)=O)c1ccc(Cl)c(-c2nnn(Cc3cc(OC(F)(F)F)ccc3F)n2)n1` (racemic) [Rac-27 + 28, 2-(5-chloro-6-(2-(2-fluoro-5-(trifluoromethoxy)benzyl)-2H-tetrazol-5-yl)pyridin-2-yl)-2-hydroxypropane-1-sulfonamide], for which the IC50 at human Nav1.5 [1] is 1.1 µM; at human Nav1.5 [3] it was 16 µM.

As to `NS(=O)(=O)CC(O)c1cccc(-c2ccn(Cc3cc(OC(F)(F)F)ccc3F)n2)n1` (racemic) [Example 36, 2-(6-(1-(2-fluoro-5-(trifluoromethoxy)benzyl)-1H-pyrazol-3-yl)pyridin-2-yl)-2-hydroxyethane-1-sulfonamide], the IC50 was 3.7 µM on human Nav1.5 [1] and greater than 30 µM on human Nav1.5 [3].

Take `CC(O)(CS(N)(=O)=O)c1cccc(-c2nnn(Cc3cc(Cl)ccc3F)n2)n1` (single isomer, unassigned) [Example 22, (R or S)-2-(6-(2-(5-chloro-2-fluorobenzyl)-2H-tetrazol-5-yl)pyridin-2-yl)-2-hydroxypropane-1-sulfonamide]: the half-inhibitory concentration (IC50) on human Nav1.5 [1] came out at 8.4 µM; at human Nav1.5 [3], 22 µM.

`CC(O)(CS(N)(=O)=O)c1ccc(Cl)c(-c2nnn(Cc3cc(OC(F)(F)F)ccc3F)n2)n1` (single isomer, unassigned) [Example 27, (R or S)-2-(5-chloro-6-(2-(2-fluoro-5-(trifluoromethoxy)benzyl)-2H-tetrazol-5-yl)pyridin-2-yl)-2-hydroxypropane-1-sulfonamide]: the IC50 at human Nav1.5 [1] was 0.8 µM; on human Nav1.5 [3], 4.1 µM.

`C[C@@](O)(CS(N)(=O)=O)c1cccc(-c2nnn(Cc3cc(OC(F)(F)F)ccc3F)n2)n1` [Example 2, (S)-2-(6-(2-(2-fluoro-5-(trifluoromethoxy)benzyl)-2H-tetrazol-5-yl)pyridin-2-yl)-2-hydroxypropane-1-sulfonamide]: the IC50 was 4.7 µM at human Nav1.5 [1] and greater than 30 µM at human Nav1.5 [3].

Consider `NS(=O)(=O)CC(O)(c1cccc(-c2ccn(Cc3cc(OC(F)(F)F)ccc3F)n2)n1)C(F)(F)F` (racemic) [Example 39, 3,3,3-trifluoro-2-(6-(1-(2-fluoro-5-(trifluoromethoxy)benzyl)-1H-pyrazol-3-yl)pyridin-2-yl)-2-hydroxypropane-1-sulfonamide], for which the IC50 at human Nav1.5 [1] was 4.4 µM; on human Nav1.5 [3], greater than 30 µM.

For `CC(O)(CS(N)(=O)=O)c1cccc(-c2ccn(Cc3cc(OC(F)(F)F)ccc3F)n2)n1` (single isomer, unassigned) [Rac-37 + 38, (R or S)-2-(6-(1-(2-fluoro-5-(trifluoromethoxy)benzyl)-1H-pyrazol-3-yl)pyridin-2-yl)-2-hydroxypropane-1-sulfonamide], the IC50 on human Nav1.5 [1] was 2.3 µM; on human Nav1.5 [3] it was greater than 30 µM.

The values above are taken from patent US20250034108A1, “SODIUM CHANNEL BLOCKERS” (NOVARTIS AG, priority 2023, published 2025).
